Data: paper PMC3589280 (Channels, 2013)

Experiments:
[1] = target: T1, rBASIC (rat bile acid-sensitive ion channel) (Rattus norvegicus, UniProt Q9R0W5); assay: oocyte current recording, co-application; type: cell-based; conditions: 0.5 mM CDCA co-applied with 1.0 mM UDCA; CDCA not tested alone here
T1 sequence (Q9R0W5 1-495): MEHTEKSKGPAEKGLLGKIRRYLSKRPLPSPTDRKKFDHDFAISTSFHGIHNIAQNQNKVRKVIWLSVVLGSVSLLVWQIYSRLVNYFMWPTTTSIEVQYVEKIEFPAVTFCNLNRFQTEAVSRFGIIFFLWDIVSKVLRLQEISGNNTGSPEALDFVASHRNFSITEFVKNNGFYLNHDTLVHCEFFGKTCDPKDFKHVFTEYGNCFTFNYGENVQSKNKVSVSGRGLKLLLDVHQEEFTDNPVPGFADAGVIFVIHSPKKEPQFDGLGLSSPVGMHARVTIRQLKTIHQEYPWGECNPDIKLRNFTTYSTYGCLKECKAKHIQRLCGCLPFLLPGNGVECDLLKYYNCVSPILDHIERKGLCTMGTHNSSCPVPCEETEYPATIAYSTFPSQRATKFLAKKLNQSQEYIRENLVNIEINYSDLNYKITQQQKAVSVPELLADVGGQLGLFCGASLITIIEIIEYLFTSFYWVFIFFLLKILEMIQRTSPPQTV

[2] = target: T1, rBASIC (rat bile acid-sensitive ion channel); assay: oocyte current recording, concentration-response, Hill fit; type: cell-based

EC50 [2] [µM] | SMILES | oocyte current recording, co-application [1]
– | C[C@H](CCC(=O)O)[C@H]1CC[C@H]2[C@@H]3[C@H](O)C[C@@H]4C[C@H](O)CC[C@]4(C)[C@H]3CC[C@]12C [CDCA] | CDCA and UDCA synergistically activate rBASIC
2100 ± 40 | C[C@H](CCC(=O)O)[C@H]1CC[C@H]2[C@@H]3C[C@H](O)[C@@H]4C[C@H](O)CC[C@]4(C)[C@H]3CC[C@]12C [HDCA] | –
2500 ± 40 | C[C@H](CCC(=O)O)[C@H]1CC[C@H]2[C@@H]3[C@@H](O)C[C@@H]4C[C@H](O)CC[C@]4(C)[C@H]3CC[C@]12C [UDCA] | –
